# Assay results as given in US9474780B2, “GIP and GLP-1 co-agonist compounds” (Eli Lilly and Company, priority 2015, dated 2016).
# Where “and” joins values, the source holds several entries; their conditions need not be identical. Equal entries are not always repeated.
# Assays:
# [1] = Weight loss, body composition and hepatic steatosis in DIO mice; format: in vivo, mouse; settings: for Blood Glucose: Day 15
# Outline: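 C57/BL6 DIO mice, individually housed at 24 °C, 12 h light/dark, food and water ad libitum; daily body weight and food intake, weight change versus pre-dose value of the same animal. Day 15: tail-vein glucose, then liver triglycerides and plasma cholesterol; ANOVA with Dunnett's test, ED50 for weight loss by non-linear fit.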
# [2] = Rat in vivo insulin secretion following intravenous glucose (IVGTT); settings: s.c. 16 hour prior to glucose
# Outline: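 Male Wistar rats dosed s.c. with vehicle or 0.1–10 nmol/kg 16 h before glucose, then fasted and anesthetized with pentobarbital i.p. (65 mg/kg). Glucose ([…]) given after a time-zero bleed; plasma sampled at 2, 4, 6, 10, 20, 30 min. Glucose measured by analyzer, insulin by MSD immunoassay.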
# [3] = target: T1, human GIP-R (Homo sapiens, UniProt P48546); assay: Functional hGIP-R cAMP assay in HEK-293 clonal cells; settings: HEK293, read-out: Human GIP-R Emax
# T1 sequence (P48546 22-466): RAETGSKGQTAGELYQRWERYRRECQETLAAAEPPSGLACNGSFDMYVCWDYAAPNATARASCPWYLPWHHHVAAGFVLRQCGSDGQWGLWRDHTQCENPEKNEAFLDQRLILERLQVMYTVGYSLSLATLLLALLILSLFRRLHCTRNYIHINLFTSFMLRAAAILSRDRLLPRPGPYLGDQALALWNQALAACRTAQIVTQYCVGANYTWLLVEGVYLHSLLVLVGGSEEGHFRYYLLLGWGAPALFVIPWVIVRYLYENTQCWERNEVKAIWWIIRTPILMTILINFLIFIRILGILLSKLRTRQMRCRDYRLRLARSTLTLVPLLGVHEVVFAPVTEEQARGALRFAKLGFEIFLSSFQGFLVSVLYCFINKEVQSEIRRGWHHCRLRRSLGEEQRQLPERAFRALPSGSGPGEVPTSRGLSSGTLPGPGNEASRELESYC
# [4] = target: Human GCGR (Homo sapiens, UniProt P47871); assay: Functional hGCGR cAMP assay in HEK-293 clonal cells
# [5] = target: T2, human GLP-1R (Homo sapiens, UniProt P43220); assay: Functional hGLP-1R cAMP assay in HEK-293 clonal cells; format: cell-based; settings: HEK293; percent of maximal response of hGLP-1(7-36)NH2
# T2 construct: expressed in transfected cells; host or cells: 293HEK, Hygromycin-selected; crude plasma membranes
# Procedure: After an incubation of 60 minutes at room temperature, the resulting increase in intracellular cAMP is quantitatively determined using the CisBio cAMP Dynamic 2 HTRF Assay Kit (Bedford, Mass.). Briefly, cAMP levels within the cell are detected by adding the cAMP-d2 conjugate in cell lysis buffer (20 μl) followed by the antibody anti-cAMP-Eu^3+-Cryptate, also in cell lysis buffer (20 μl). The resulting competitive assay is incubated for at least 60 minutes at room temperature, then detected using a PerkinElmer Envision® instrument with excitation at 320 nm and emission at 665 nm and 620 nm Envision units (emission at 665 nm/620 nm*10,000) are inversely proportional to the amount of cAMP present and are converted to nM cAMP per well using a cAMP standard curve. […] A relative EC50 value and percent top (Emax) is derived by non-linear regression analysis using the percent maximal response versus the concentration of the compound of the present invention, fitted to a four-parameter logistic equation.
# [6] = target: T2, human GLP-1R; format: binding
# [7] = Pharmacokinetics in cynomolgus monkeys; format: in vivo; settings: cynomolgus monkey, plasma, single SC 0.2 mg/kg, male monkeys, n = 2
# Outline: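 Single 0.2 mg/kg dose, intravenous or subcutaneous, in 20 mM citrate buffer pH 7.0; blood sampled from 2 to 312 hours post-dose. Plasma extracted with N-butanol, reconstituted in 30% acetonitrile/0.1% formic acid and quantified by LC/MS on a C5 column with Q-Exactive detection.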
# [8] = test system: mouse islets; assay: Mouse islet insulin secretion; format: cell-based; settings: read-out: Mouse islet insulin secretion Mean ED50
# Procedure: (§1) To assess action of compounds of the present invention in a system representing physiological GLP-1R and GIP-R expression levels insulin secretion, compounds are tested for effects on insulin secretion from wild-type rodent islets.
# (§2) After common bile duct cannulation in male C57B1/6 mice (22-26 g) or male Sprague-Dawley rats (approx. 250 g), the pancreas is distended with Hank's buffer (3 ml for mice or 10 ml for rats, containing 2% BSA and 0.75 mg/ml Clzyme collagenase (VitaCyte). Subsequently, tissues are digested in Hank's buffer at 37° C. for 11-13 minutes (mice) or 14-16 minutes for rat pancreata. Purified islets (Histopaque-1100 gradient [Sigma-Aldrich], […] at 750× gravity) are cultured overnight in RPMI-1640 medium (Invitrogen) containing 10% FBS, 100 U/ml penicillin and 100 μg/ml streptomycin, and preconditioned by starvation in Earle's Balanced Salt Solution (EBSS) supplemented with 0.1% BSA and 2.8 mM glucose. Subsequently, islets are incubated in EBSS (Invitrogen) supplemented with 0.1% BSA, 2.8-11.2 mM glucose and increasing levels of compound (6 batches of 4 islets/condition). GLP-1(7-36)amide (30 nM) is used as a positive control. Insulin is measured over 90 minutes in supernatant using the MSD Insulin Assay (Meso Scale, Gaithersburg, Md.).
# [9] = test system: rat islets; assay: Rat islet insulin secretion; format: cell-based; settings: read-out: Rat islet insulin secretion Mean ED50
# Procedure: as §1, §2
# T2 sequence (P43220 24-463): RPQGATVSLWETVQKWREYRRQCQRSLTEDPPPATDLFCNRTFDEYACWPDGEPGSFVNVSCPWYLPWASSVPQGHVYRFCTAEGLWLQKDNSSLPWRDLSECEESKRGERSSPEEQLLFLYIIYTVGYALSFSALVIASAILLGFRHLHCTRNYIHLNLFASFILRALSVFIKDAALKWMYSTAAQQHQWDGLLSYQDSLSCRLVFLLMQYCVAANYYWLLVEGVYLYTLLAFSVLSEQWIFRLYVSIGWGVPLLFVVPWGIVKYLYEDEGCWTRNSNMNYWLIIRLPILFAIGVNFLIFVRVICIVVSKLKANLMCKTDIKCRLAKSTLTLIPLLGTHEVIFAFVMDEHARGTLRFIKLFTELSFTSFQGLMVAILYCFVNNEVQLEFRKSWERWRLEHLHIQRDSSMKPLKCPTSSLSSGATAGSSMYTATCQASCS
# Chain of Human GCGR (P47871 26-477): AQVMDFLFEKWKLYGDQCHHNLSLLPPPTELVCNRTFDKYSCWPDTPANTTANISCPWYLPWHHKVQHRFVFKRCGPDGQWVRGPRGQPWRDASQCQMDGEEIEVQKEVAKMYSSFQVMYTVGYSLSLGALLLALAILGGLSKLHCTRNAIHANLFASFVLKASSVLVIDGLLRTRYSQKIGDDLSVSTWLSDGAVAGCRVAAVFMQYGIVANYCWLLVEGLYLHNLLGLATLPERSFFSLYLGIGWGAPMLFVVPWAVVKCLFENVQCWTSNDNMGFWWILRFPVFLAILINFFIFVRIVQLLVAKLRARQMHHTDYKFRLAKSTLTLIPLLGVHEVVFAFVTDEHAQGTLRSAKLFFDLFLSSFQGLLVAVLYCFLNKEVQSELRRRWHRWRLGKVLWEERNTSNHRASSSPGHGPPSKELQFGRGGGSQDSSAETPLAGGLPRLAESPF
smiles,measurement,setting,value
CC[C@H](C)[C@H](NC(=O)[C@H](CC(C)C)NC(=O)[C@H](Cc1c[nH]c2ccccc12)NC(=O)[C@H](CCC(N)=O)NC(=O)[C@@H](NC(=O)[C@H](Cc1ccccc1)NC(=O)[C@H](C)NC(=O)[C@H](CCCCNC(=O)COCCOCCNC(=O)COCCOCCNC(=O)CC[C@H](NC(=O)CCCCCCCCCCCCCCCCC(=O)O)C(=O)O)NC(=O)[C@H](CCC(N)=O)NC(=O)[C@H](C)NC(=O)[C@@H](NC(=O)[C@H](CCCCN)NC(=O)[C@H](CC(=O)O)NC(=O)[C@H](CC(C)C)NC(=O)C(C)(C)NC(=O)[C@@H](NC(=O)[C@H](CO)NC(=O)[C@H](Cc1ccc(O)cc1)NC(=O)[C@H](CC(=O)O)NC(=O)[C@H](CO)NC(=O)[C@@H](NC(=O)[C@H](Cc1ccccc1)NC(=O)[C@@H](NC(=O)CNC(=O)[C@H](CCC(=O)O)NC(=O)C(C)(C)NC(=O)[C@@H](N)Cc1ccc(O)cc1)[C@@H](C)O)[C@@H](C)O)[C@@H](C)CC)[C@@H](C)CC)C(C)C)C(=O)N[C@@H](C)C(=O)NCC(=O)NCC(=O)N1CCC[C@H]1C(=O)N[C@@H](CO)C(=O)N[C@@H](CO)C(=O)NCC(=O)N[C@@H](C)C(=O)N1CCC[C@H]1C(=O)N1CCC[C@H]1C(=O)N1CCC[C@H]1C(=O)N[C@@H](CO)C(N)=O [Example 3],% Change from starting body weight,"[1]; Table 8, 10 nmol/kg",−13.38 ± 0.88 %
same,% Change from starting fat mass,"[1]; Table 8, 10 nmol/kg",−20.76 ± 2.42 %
same,% Change from starting body weight,"[1]; Table 8, 30 nmol/kg",−18.13 ± 1.44 %
same,% Change from starting fat mass,"[1]; Table 8, 30 nmol/kg",−30.90 ± 2.06 %
same,% Change from starting body weight,"[1]; Table 8, 100 nmol/kg",−25.84 ± 1.93 %
same,% Change from starting fat mass,"[1]; Table 8, 100 nmol/kg",−45.92 ± 2.15 %
same,Plasma Cholesterol,"[1]; Table 11, 10 nmol/kg",213.2 ± 15.54 mg/dL
same,Plasma Triglycerides,"[1]; Table 11, 10 nmol/kg",30.38 ± 8.23 mg/dL
same,Blood Glucose,"[1]; Table 11, 10 nmol/kg",109.5 ± 2.35 mg/dL
same,Plasma Cholesterol,"[1]; Table 11, 30 nmol/kg",177.4 ± 16.58 mg/dL
same,Plasma Triglycerides,"[1]; Table 11, 30 nmol/kg",21.32 ± 2.48 mg/dL
same,Blood Glucose,"[1]; Table 11, 30 nmol/kg",107.6 ± 1.32 mg/dL
same,Plasma Cholesterol,"[1]; Table 11, 100 nmol/kg",194.00 ± 14.40 mg/dL
same,Plasma Triglycerides,"[1]; Table 11, 100 nmol/kg",20.55 ± 4.60 mg/dL
same,Blood Glucose,"[1]; Table 11, 100 nmol/kg",102.00 ± 0.50 mg/dL
same,% max increase of insulin AUC,[2],314 +/− 38% and 219 +/− 19%
same,"ED50 for insulin, rat IVGTT",[2],1.00 nmol/kg and 1.42 nmol/kg
same,Emax,[3],106 ± 3%
same,EC50,[4],> 1000 nM
same,Emax,[5],96.2 ± 6.2%
same,Molar ratio of hGLP-1R/hGIP-R,[6]; normalized by factor 4.53 from native GIP and GLP-1 binding,3.53
same,Absolute ratio of hGLP-1R/hGIP-R,[6]; ratio of Ki values,16
same,CL/F,[7],1.3 mL/h/kg
same,Cmax,[7],3000 ng/mL
same,AUC(0-inf),[7]; read-out: Mean AUC0-inf,153 µg·h/mL
same,half-life,[7]; read-out: Mean T1/2 (converted),34 h
same,Tmax,[7]; read-out: Mean Tmax,8 h
same,EC50,[8],58.9 nM
same,EC50,[9],34.9 nM
